Entries after “also recorded” stand apart in the source; their conditions may differ.
Legend:
[1] = test system: human isoform of PKC (protein kinase C) beta 1 tagged with GFP; test: Type 1 redistribution assay (PKC beta 1-GFP, ATP stimulus) on FLIPR; type: cell-based; conditions: for increase in the measurable response, type 1 redistribution: summary, enhancer added to extracellular medium, FLIPR
Experimental: (§1) The CHO (Chinese hamster ovary) cell line stably expressing the human isoform of PKC (protein kinase C) beta 1 tagged with GFP (green fluorescent protein)in its C-terminal end and the human RACK1 (receptor for activated C kinase) was cultured in 96-well microtiter plates (Packard View-Plate). After 20 min preincubation in KRW (experimental buffer; A modified Krebs-Ringer buffer containing (in mM): NaCl 140, KCl 3.6, NaH2PO4 0.5, MgSO4 0.5, NaHCO3 2.0, CaCl2 1.5 and HEPES 10, D-glucose 5 (pH 7.4, titrated with 1M NaOH)) the cell plate was supplemented with a concentration gradient of Trypan Blue at 0, 10, 50, 100 and 200 μM (4 wells per compound and concentration) and placed in the FLIPR™. Subsequently the cells were stimulated in the FLIPR™ with 100 μM ATP. This gives a Type 1 redistribution response (see FIG. 6) in these cells where the redistribution can be quantified as a reduction in fluorescence intensity, as PKC beta 1 moves from the cytosol to the membrane, during the first 1-2 minutes of stimulation. […] All data were corrected for background by subtraction of a background trace based on 16 individual background traces and normalized to 1 at the point of addition of 100 μM ATP.
as §1, with “Acid Red 88” for “Trypan Blue”
The CHO (Chinese hamster ovary) cell line stably expressing the human isoform of PKC (protein kinase C) beta 1 tagged with GFP (green fluorescent protein) in its C-terminal end and the human RACK1 (receptor for activated C kinase) was cultured in 96-well microtiter plates (Packard View-Plate). After 20 min preincubation in KRW (experimental buffer; A modified Krebs-Ringer buffer containing (in mM): NaCl 140, KCl 3.6, NaH2PO4 0.5, MgSO4 0.5, NaHCO3 2.0, CaCl2 1.5 and HEPES 10, D-glucose 5 (pH 7.4, titrated with 1M NaOH)) the cell plate was supplemented with a concentration gradient of Trypan Blue, Acid Red 88 and Orange G at 0, 10, 50, 100 and 200 μM (4 wells per compound and concentration) and placed in the FLIPR™. Subsequently the cells were stimulated in the FLIPR™ with 100 μM ATP. This gives a Type 1 redistribution response (see FIG. 6) in these cells where the redistribution can be quantified as a reduction in fluorescence intensity, as PKC beta 1 moves from the cytosol to the membrane, during the first 1-2 minutes of stimulation. All data were corrected for background by subtraction of a background trace based on 16 individual background traces and normalized to 1 at the point of addition of 100 μM ATP. The data points represent the average of four determinations+SD. […]

[2] = test system: PH-domain (pleckstrin homology) of the human isoform of PLC (phospho-lipase C) delta tagged with GFP; test: Type 3 redistribution assay (PLC delta PH-domain-GFP, ATP stimulus) on FLIPR; type: cell-based; conditions: for increase in the measurable response, type 3 redistribution: summary, enhancer added to extracellular medium, FLIPR
Experimental: The CHO (Chinese hamster ovary) cell line stably expressing the PH-domain (pleckstrin homology) of the human isoform of PLC (phospho-lipase C) delta tagged with GFP (green fluorescent protein) in its C-terminal end was cultured in 96-well microtiter plates (Packard View-Plate). After 20 min preincubation in KRW (experimental buffer; A modified Krebs-Ringer buffer containing (in mM): NaCl 140, KCl 3.6, NaH2PO4 0.5, MgSO4 0.5, NaHCO3 2.0, CaCl2 1.5 and HEPES 10, D-glucose 5 (pH 7.4, titrated with 1M NaOH)) the cell plate was supplemented with 100 μM Trypan Blue in one half and 10 μM Acid Red 88 in the other half of the wells and placed in the FLIPR™. Subsequently the cells were stimulated in the FLIPR™ with a range of ATP concentrations starting with 300 μM and lower by a threefold reduction of concentration in each dilution step. This gives a Type 3 redistribution response (see FIG. 6) in these cells where the redistribution can be quantified as an increase in fluorescence intensity, as the PH-domain of PLC delta 1 moves from the membrane to the cytosol, during the first 1-2 minutes of stimulation. FIG. 4 summarizes this experiment. All data were corrected for background by subtraction of a background trace based on 4 individual background traces. The data points represent the average of four determinations+SD. The data were extracted as the maximal change during the first minute of stimulation (Smax-Smin).
The CHO (Chinese hamster ovary) cell line stably expressing the PH-domain (pleckstrin homology) of the human isoform of PLC (phospho-lipase C) delta tagged with GFP (green fluorescent protein) in its C-terminal end was cultured in 96-well microtiter plates (Packard View-Plate). After 20 min preincubation in KRW (experimental buffer; A modified Krebs-Ringer buffer containing (in mM): NaCl 140, KCl 3.6, NaH2PO4 0.5, MgSO4 0.5, NaHCO3 2.0, CaCl2 1.5 and HEPES 10, D-glucose 5 (pH 7.4, titrated with 1M NaOH)) the cell plate was supplemented with 100 μM Trypan Blue in one half and 20 μM Acid Red 88 in the other half of the wells and placed in the FLIPR. Subsequently the cells were stimulated in the FLIPR with 100 μM ATP. This gives a Type 3 redistribution response (see FIG. 6) in these cells where the redistribution can be quantified as an increase in fluorescence intensity, as the PH-domain of PLC delta 1 moves from the membrane to the cytosol, during the first 1-2 minutes of stimulation. FIG. 4 summarizes this experiment. It can be seen that Acid Red 88 in this case maximally gives about a 6-7-fold increase in signal over the one obtained with Trypan Blue.

[3] = test system: mouse cPKA (catalytic subunit of protein kinase A) tagged with GFP; test: Type 2 redistribution assay (cPKA-GFP, Forskolin stimulus) on FLIPR; type: cell-based; conditions: for effect on type 2 redistribution response: CHO cells, concentration gradient of dye
Experimental: The CHO (Chinese hamster ovary) cell line stably expressing the mouse cPKA (catalytic subunit of protein kinase A) tagged with GFP (green fluorescent protein) in its N-terminal end was cultured in 96-well microtiter plates (Packard View-Plate). After 20 min preincubation in KRW (experimental buffer; A modified Krebs-Ringer buffer containing (in mM): NaCl 140, KCl 3.6, NaH2PO4 0.5, MgSO4 0.5, NaHCO3 2.0, CaCl2 1.5 and HEPES 10, D-glucose 5 (pH 7.4, titrated with 1M NaOH)) the cell plate was supplemented with a concentration gradient of Trypan Blue and Acid Red 88 (4 wells per compound and concentration) and placed in the FLIPR™. Subsequently the cells were stimulated in the FLIPR™ with 10 μM Forskolin. This gives a Type 2 redistribution response (see FIG. 6) in these cells where the redistribution can be quantified as an increase in fluorescence intensity, as cPKA moves from aggregates in the cytosol to a dispersed form in the cytosol, during the first 2-5 minutes of stimulation. All data were corrected for background by subtraction of a background trace based on 16 individual background traces and normalized to 1 at the point of addition of 10 μM Forskolin. The data points represent the average of four determinations+SD. The data were extracted as the maximal change in fluorescence during the first five minutes of stimulation. Negative values depict a decrease In fluorescence during the response and positive values and Increase.
The CHO (Chinese hamster ovary) cell line stably expressing the mouse cPKA (catalytic subunit of protein kinase A) tagged with GFP (green fluorescent protein) in its N-terminal end was cultured in 96-well microtiter plates (Packard View-Plate). After 20 min preincubation in KRW (experimental buffer; A modified Krebs-Ringer buffer containing (in mM): NaCl 140, KCl 3.6, NaH2PO4 0.5, MgSO4 0.5, NaHCO3 2.0, CaCl2 1.5 and HEPES 10, D-glucose 5 (pH 7.4, titrated with 1M NaOH)) the cell plate was supplemented with a concentration gradient of Trypan Blue and Acid Red 88 at 0, 10, 50, 100 and 200 μM during the experimental fluorescence recording (4 wells per compound and concentration) in the FLIPR™. […] The data were extracted as the absolute fluorescence change 30 seconds after addition of the two compounds.
The CHO (Chinese hamster ovary) cell line stably expressing the mouse cPKA (catalytic subunit of protein kinase A) tagged with GFP (green fluorescent protein) in its N-terminal end was cultured in 96-well microtiter plates (Packard View-Plate). […] This gives a Type 2 redistribution response (see FIG. 6) in these cells where the redistribution can be quantified as an increase in fluorescence intensity, as cPKA moves from aggregates in the cytosol to a dispersed form in the cytosol, during the first 2-5 minutes of stimulation.

[4] = cited from earlier work; for Molar Absorptivity 488 nm: at 488 nm; for Molar Absorptivity 488 nm / Molar Absorptivity 500-550 nm: estimated from published spectra; for Molar Absorptivity 500-550 nm: average over 500-550 nm; for Wavelength of maxiumum absorbance: published spectra
Solubility in water = type: physicochemical

## O=S(=O)([O-])c1ccc(N=Nc2c(O)ccc3ccccc23)c2ccccc12.[Na+] [Acid Red 88]
[1]; at 50 μM enhancer, CHO cells, 100 μM ATP
  maximal enhancement of the response compared to the control: about 7 fold
[1]; concentration dependent, 0-200 μM, no stimulus (FIG. 7)
  effect on overall basal fluorescence, type 1 redistribution assay: reduces overall basal fluorescence
[1]
  increase in the measurable response, type 1 redistribution: 6-7 fold
[2]; maximal, 20 μM Acid Red 88 vs 100 μM Trypan Blue, CHO cells, ATP
  increase in signal over the one obtained with Trypan Blue, type 3 redistribution: 6-7 fold
[2]
  increase in the measurable response, type 3 redistribution: 7-10 fold
[3]; 0-200 μM, no stimulus (FIG. 10)
  effect on overall basal fluorescence, type 2 redistribution assay: did not reduce the overall basal fluorescence
[3]; 10 μM Forskolin
  effect on type 2 redistribution response: completely abolished the response at the lowest concentration
[3]; above 10 μM, 10 μM Forskolin
  effect on type 2 redistribution response at higher concentrations: reversed it to a fluorescence decrease
[4]
  Molar Absorptivity 488 nm: 16986 mol^−1-cm^−1
  Molar Absorptivity 500-550 nm: 14964 mol^−1-cm^−1
  Wavelength of maxiumum absorbance: 505 nm

## O=S(=O)(O)c1cc(S(=O)(=O)O)c2c(/N=N/c3ccccc3)c(O)ccc2c1 [Orange G]
[1]; CHO cells, 100 μM ATP, 0-200 μM dye
  enhancing effect on type 1 redistribution response: enhancing properties up to a concentration of 100 μM; also recorded: inferior to Trypan Blue and much inferior to Acid Red 88
[4]
  Molar Absorptivity 488 nm: 13571 mol^−1-cm^−1
  Molar Absorptivity 500-550 nm: 4524 mol^−1-cm^−1
  Wavelength of maxiumum absorbance: 475 nm

## Cc1cc(-c2ccc(/N=N/c3c(S(=O)(=O)O)cc4cc(S(=O)(=O)O)cc(N)c4c3O)c(C)c2)ccc1/N=N/c1c(S(=O)(=O)O)cc2cc(S(=O)(=O)O)cc(N)c2c1O [Trypan Blue]
[1]; at 200 μM enhancer, CHO cells, 100 μM ATP
  maximal enhancement of the response compared to the control: about 3 fold
[1]
  increase in the measurable response, type 1 redistribution: 2-3 fold
[2]; 100 μM Trypan Blue, response barely detectable without the compound
  effect on type 3 redistribution response: clearly give a detectable signal
[2]
  increase in the measurable response, type 3 redistribution: 1-3 fold
[3]; 10 μM Forskolin
  effect on type 2 redistribution response: reduced it somewhat at higher concentrations; also recorded: no enhancing effect
Solubility in water
  solubility: < 100 µg/mL
[4]
  Molar Absorptivity 488 nm: 16014 mol^−1-cm^−1
  Molar Absorptivity 500-550 nm: 34556 mol^−1-cm^−1
  Wavelength of maxiumum absorbance: 607 nm

Reference: patent US20030162165A1, “Chemical signal enhancement of dynamic intensity-based intracellular protein-and fluorophore-based redistribution assays for drug-screening” (priority 2003, published 2003)
